Data from patent publication US20080194552A1, “Aminopyrimidine Derivatives With Tie2 Inhibiting Activity” (ASTRAZENECA AB, priority 2005, published 2008).

Target: T1, Tie2 receptor tyrosine kinase (Homo sapiens, UniProt Q02763)
T1 construct: one can use natural cell lines or primary cells which are known to express the receptor of choice; endogenous in cells; host or cells: EA.hy926/B3 cells (HUVEC named as an alternative)
Test: Cellular Tie2 autophosphorylation assay
Format: cell-based
Conditions: whole cells, e.g. Ang1 ligand stimulated EA.hy926/B3 cells; read-out: IC50 Inhibition of autophosphorylation of Tie2 receptor tyrosine kinase
Description: The following assay can be used to measure the effects of the compounds of the present invention as inhibitors of Tie2 autophosphorylation in whole cells.
Cellular Tie2 Autophosphorylation Assay
This assay is based on measuring the ability of compounds to inhibit autophosphorylation of the Tie2 receptor which normally leads to the production of “activated” receptor that in turn initiates the particular signal transduction pathways associated with the receptor function.
Autophosphorylation can be achieved by a number of means. It is known that expression of recombinant kinase domains in baculoviral systems can lead to the production of phosphorylated and activated receptor. […]
Naturally if the ligand is available one can use natural cell lines or primary cells which are known to express the receptor of choice and simply stimulate with ligand to achieve ligand induced phosphorylation. The ability of compounds to inhibit autophosphorylation of the Tie2 receptor, which is expressed for example in EA.hy926/B3 cells (supplied by J. McLean/B. Tuchi, Univ. of N. Carolina at Chapel Hill, CB-4100, 300 Bynum Hall, Chapel Hill, N.C. 27599-41000, USA) or primary HUVEC (human umbilical vein endothelial cells—available from various commercial sources), can measured by this assay. […]

T1 sequence (Q02763 23-1124): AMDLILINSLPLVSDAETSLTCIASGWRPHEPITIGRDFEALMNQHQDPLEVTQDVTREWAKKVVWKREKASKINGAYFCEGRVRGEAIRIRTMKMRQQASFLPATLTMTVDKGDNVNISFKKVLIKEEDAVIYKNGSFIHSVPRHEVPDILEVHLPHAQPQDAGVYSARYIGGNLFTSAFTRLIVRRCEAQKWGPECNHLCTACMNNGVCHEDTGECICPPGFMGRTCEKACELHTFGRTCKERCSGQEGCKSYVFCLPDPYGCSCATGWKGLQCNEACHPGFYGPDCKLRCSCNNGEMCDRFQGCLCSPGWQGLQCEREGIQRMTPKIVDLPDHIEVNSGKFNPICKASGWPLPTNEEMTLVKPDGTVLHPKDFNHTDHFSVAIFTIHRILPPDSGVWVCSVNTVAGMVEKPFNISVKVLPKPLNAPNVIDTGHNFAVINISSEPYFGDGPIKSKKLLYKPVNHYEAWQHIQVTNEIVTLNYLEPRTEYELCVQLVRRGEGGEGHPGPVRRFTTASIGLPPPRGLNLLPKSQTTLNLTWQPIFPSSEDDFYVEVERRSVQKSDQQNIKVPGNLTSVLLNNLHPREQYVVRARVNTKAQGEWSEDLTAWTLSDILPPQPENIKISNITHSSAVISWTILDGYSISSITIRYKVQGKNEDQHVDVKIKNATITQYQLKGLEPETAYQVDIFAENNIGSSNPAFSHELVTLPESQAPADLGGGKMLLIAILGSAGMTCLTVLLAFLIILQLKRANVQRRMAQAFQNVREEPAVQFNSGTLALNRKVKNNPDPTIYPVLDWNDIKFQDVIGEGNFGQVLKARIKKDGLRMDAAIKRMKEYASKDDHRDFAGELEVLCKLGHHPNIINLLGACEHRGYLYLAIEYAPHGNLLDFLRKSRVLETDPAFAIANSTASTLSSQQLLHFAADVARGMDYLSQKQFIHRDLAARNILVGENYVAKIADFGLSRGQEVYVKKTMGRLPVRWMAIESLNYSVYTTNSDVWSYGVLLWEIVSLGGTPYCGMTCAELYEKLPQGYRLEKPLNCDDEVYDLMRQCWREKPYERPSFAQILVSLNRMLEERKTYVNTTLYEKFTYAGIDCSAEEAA

IC50 [nM] | SMILES
16 | Nc1ncc(C#Cc2ccc(C(=O)Nc3cc(C(F)(F)F)ccc3F)s2)cn1 [Example 1, 5-[(2-Aminopyrimidin-5-yl)ethynyl]-N-[2-fluoro-5-(trifluoromethyl)phenyl]thiophene-2-carboxamide]
26 | Nc1ncc(C#Cc2csc(C(=O)Nc3cc(C(F)(F)F)ccc3F)c2)cn1 [Example 2, 4-[(2-Aminopyrimidin-5-yl)ethynyl]-N-[2-fluoro-5-(trifluoromethyl)phenyl]thiophene-2-carboxamide]
